Test results from patent publication US11142526B2, “Spirocycle compounds and methods of making and using same” (H. Lundbeck A/S, priority 2017, dated 2021).
Read-outs that look alike come from different tables or passages of the source.

Assays:
MAGL [1] = target: T1, MAGL (Mus musculus (Mouse), UniProt O35678); assay: Mouse brain proteomes from inhibitor treated mice (oral gavage, brain MAGL activity 4 h after administration); format: in vivo; details: 5 mg/kg oral gavage
Experimental: Preparation of Mouse Brain Proteomes from Inhibitor Treated Mice.
Inhibitors were administered to wild-type C57B1/6J by oral gavage in a vehicle of polyethylene glycol.

MAGL [2] = target: T1, MAGL; assay: In vitro competitive activity-based protein profiling, mouse brain proteome; format: biochemical; details: for inhibition at 1 µM: mouse; for IC50: mouse brain
MAGL [3] = target: MAGL (Homo sapiens (Human), UniProt Q99685); assay: In vitro competitive activity-based protein profiling (gel-based, FP-Rh or HT-01 probe); format: biochemical
Experimental: In Vitro Competitive Activity-Based Protein Profiling.
Proteomes (human prefrontal cortex or cell membrane fractions) (50 μL, 1.0 mg/mL total protein concentration) were preincubated with varying concentrations of inhibitors at 37° C. After 30 min, FP-Rh or HT-01 (1.0 μL, 50 μM in DMSO) was added and the mixture was incubated for another 30 min at room temperature. Reactions were quenched with SDS loading buffer (15 μL—4×) and run on SDS-PAGE.

[4] = human PC3, read-out: MAGL % Inhibition at 1 μM (human PC3)
[5] = human PFC (prefrontal cortex), read-out: MAGL % Inhibition at 1 μM (human PFC)
[6] = human PC3, read-out: MAGL Human PC3 (IC50)

Chain of MAGL (Homo sapiens (Human), UniProt Q99685) (Q99685 whole entry): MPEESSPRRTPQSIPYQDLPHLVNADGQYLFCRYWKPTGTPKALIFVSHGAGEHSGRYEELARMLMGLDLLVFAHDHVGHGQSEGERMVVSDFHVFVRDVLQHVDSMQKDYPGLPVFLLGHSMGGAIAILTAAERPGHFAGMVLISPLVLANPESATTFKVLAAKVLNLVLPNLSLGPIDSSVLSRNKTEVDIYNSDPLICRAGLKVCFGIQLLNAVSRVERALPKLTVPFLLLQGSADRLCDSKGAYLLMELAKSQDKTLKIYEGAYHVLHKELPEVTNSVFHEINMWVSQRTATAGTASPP
T1 sequence (O35678 whole entry): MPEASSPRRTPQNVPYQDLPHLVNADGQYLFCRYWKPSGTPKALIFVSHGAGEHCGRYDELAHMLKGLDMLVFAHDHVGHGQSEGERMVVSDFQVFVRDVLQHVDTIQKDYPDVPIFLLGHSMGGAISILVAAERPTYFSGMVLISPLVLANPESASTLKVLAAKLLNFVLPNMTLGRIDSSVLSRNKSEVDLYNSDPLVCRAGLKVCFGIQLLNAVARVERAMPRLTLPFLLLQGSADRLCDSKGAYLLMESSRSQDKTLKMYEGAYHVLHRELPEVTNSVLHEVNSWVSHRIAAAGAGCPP

O=C(OC(C(F)(F)F)C(F)(F)F)N1CCC2(CCCN2Cc2cc3ccccc3s2)CC1 [Example 223, 1,1,1,3,3,3-Hexafluoropropan-2-yl 1-(benzo[b]thiophen-2-ylmethyl)-1,8-diazaspiro[4.5] decane-8-carboxylate]
MAGL % Inhibition at 5 mg/kg (Mouse) (MAGL [1]): ### (% inhibition is greater than or equal to 75%)
inhibition at 1 µM (MAGL [2]): > 75%
IC50 (MAGL [2]): < 100 nM

O=C(OC(C(F)(F)F)C(F)(F)F)N1CCC2(CCCN2C(=O)c2cc3ccc(C(F)(F)F)cc3s2)CC1 [Example 101, 1,1,1,3,3,3-Hexafluoropropan-2-yl 1-(6-(trifluoromethyl)benzo[b]thiophene-2-carbonyl)-1,8-diazaspiro[4.5] decane-8-carboxylate]
MAGL % Inhibition at 5 mg/kg (Mouse) (MAGL [1]): ### (% inhibition is greater than or equal to 75%)
inhibition at 1 µM (MAGL [2]): > 75%
IC50 (MAGL [2]): < 100 nM

CC(C)c1cc(CN2CCC3(CCN(C(=O)OC(C(F)(F)F)C(F)(F)F)CC3)C2)n(-c2ccccc2Cl)n1 [Example 216, 1,1,1,3,3,3-Hexafluoropropan-2-yl 2-((1-(2-chlorophenyl)-3-isopropyl-1H-pyrazol-5-yl)methyl)-2,8-diazaspiro[4.5]decane-8-carboxylate]
MAGL % Inhibition at 5 mg/kg (Mouse) (MAGL [1]): ### (% inhibition is greater than or equal to 75%)
inhibition at 1 µM (MAGL [2]): > 75%
IC50 (MAGL [2]): < 100 nM

O=C(OC(C(F)(F)F)C(F)(F)F)N1CCC2(CCCN2Cc2ccc3ccccc3n2)CC1 [Example 54, 1,1,1,3,3,3-Hexafluoropropan-2-yl 1-(quinolin-2-ylmethyl)-1,8-diazaspiro [4.5]decane-8-carboxylate]
MAGL % Inhibition at 5 mg/kg (Mouse) (MAGL [1]): ### (% inhibition is greater than or equal to 75%)
inhibition at 1 µM (MAGL [2]): > 75%
IC50 (MAGL [2]): < 100 nM

O=C(OC(C(F)(F)F)C(F)(F)F)N1CCC2(CCCN2Cc2cc3c(Cl)cc(Cl)cc3[nH]2)CC1 [Example 11, 1,1,1,3,3,3-Hexafluoropropan-2-yl 1-((4,6-dichloro-1H-indol-2-yl)methyl)-1,8-diazaspiro[4.5]decane-8-carboxylate]
MAGL % Inhibition at 5 mg/kg (Mouse) (MAGL [1]): ### (% inhibition is greater than or equal to 75%)
inhibition at 1 µM (MAGL [2]): > 75%
IC50 (MAGL [2]): < 100 nM

CC(C)n1cc(CN2CCC3(CCN(C(=O)OC(C(F)(F)F)C(F)(F)F)CC3)C2)c(-c2ccccc2)n1 [Example 6, 1,1,1,3,3,3-Hexafluoropropan-2-yl 2-((1-isopropyl-3-phenyl-1H-pyrazol-4-yl)methyl)-2,8-diazaspiro[4.5]decane-8-carboxylate]
MAGL % Inhibition at 5 mg/kg (Mouse) (MAGL [1]): ## (% inhibition is less than 75% and greater than 25%)
inhibition at 1 µM (MAGL [2]): > 75%
IC50 (MAGL [2]): < 100 nM

O=C(OC(C(F)(F)F)C(F)(F)F)N1CCC2(CCCN2C(=O)C2(c3nccc(C(F)(F)F)n3)CC2)CC1 [Example 202, 1,1,1,3,3,3-Hexafluoropropan-2-yl 1-(1-(4-(trifluoromethyl)pyrimidin-2-yl)cyclopropane-1-carbonyl)-1,8-diazaspiro [4.5]decane-8-carboxylate]
inhibition at 1 µM (MAGL [2]): > 75%
inhibition at 1 µM (MAGL [3]; [4]): > 75%
inhibition at 1 µM (MAGL [3]; [5]): > 75%
IC50 (MAGL [3]; [6]): < 100 nM

O=C(OC(C(F)(F)F)C(F)(F)F)N1CCC2(CCCN2C(=O)c2cn3nc(Cl)ccc3n2)CC1 [Example 163, 1,1,1,3,3,3-Hexafluoropropan-2-yl 1-(6-chloroimidazo[1,2-b]pyridazine-2-carbonyl)-1,8-diazaspiro[4.5] decane-8-carboxylate]
inhibition at 1 µM (MAGL [2]): > 75%
inhibition at 1 µM (MAGL [3]; [4]): > 75%

Cc1cc(C(F)(F)F)n2nc(C(=O)N3CCCC34CCN(C(=O)OC(C(F)(F)F)C(F)(F)F)CC4)c(Cl)c2n1 [Example 121, 1,1,1,3,3,3-Hexafluoropropan-2-yl 1-(3-chloro-5-methyl-7-(trifluoromethyl)pyrazolo[1,5-a]pyrimidine-2-carbonyl)-1,8-diazaspiro[4.5] decane-8-carboxylate]
inhibition at 1 µM (MAGL [2]): > 75%
inhibition at 1 µM (MAGL [3]; [5]): > 75%
IC50 (MAGL [3]; human PFC (prefrontal cortex), read-out: MAGL Human PFC (IC50)): < 100 nM

O=C(OC(C(F)(F)F)C(F)(F)F)N1CCC2(CCCN2C(=O)c2cc3nc(C(F)F)cc(C(F)F)n3n2)CC1 [Example 166, 1,1,1,3,3,3-Hexafluoropropan-2-yl 1-(5,7-bis(difluoromethyl)pyrazolo [1,5-a]pyrimidine-2-carbonyl)-1,8-diazaspiro [4.5]decane-8-carboxylate]
inhibition at 1 µM (MAGL [2]): > 75%
inhibition at 1 µM (MAGL [3]; [4]): > 75%
inhibition at 1 µM (MAGL [3]; [5]): > 75%

Cc1nn2cccnc2c1C(=O)N1CCCC12CCN(C(=O)OC(C(F)(F)F)C(F)(F)F)CC2 [Example 171, 1,1,1,3,3,3-Hexafluoropropan-2-yl 1-(2-methylpyrazolo[1,5-a]pyrimidine-3-carbonyl)-1,8-diazaspiro[4.5] decane-8-carboxylate]
inhibition at 1 µM (MAGL [2]): > 75%
inhibition at 1 µM (MAGL [3]; [4]): > 75%
inhibition at 1 µM (MAGL [3]; [5]): > 75%
IC50 (MAGL [3]; [6]): < 100 nM

CC1(NC(=O)c2cn3c(n2)CN(c2ncco2)CC3)CCN(C(=O)OC(C(F)(F)F)C(F)(F)F)CC1 [Example 28, 1,1,1,3,3,3-Hexafluoropropan-2-yl 4-methyl-4-(7-(oxazol-2-yl)-5,6,7,8-tetrahydroimidazo[1,2-a]pyrazine-2-carboxamido)piperidine-1-carboxylate]
inhibition at 1 µM (MAGL [2]): > 75%
inhibition at 1 µM (MAGL [3]; [4]): > 75%

CC(C)n1cc(C(=O)N2CCCC23CCN(C(=O)OC(C(F)(F)F)C(F)(F)F)CC3)cn1 [Example 71, 1,1,1,3,3,3-Hexafluoropropan-2-yl 1-(1-isopropyl-1H-pyrazole-4-carbonyl)-1,8-diazaspiro[4.5] decane-8-carboxylate]
inhibition at 1 µM (MAGL [2]): > 75%
IC50 (MAGL [2]): < 100 nM
IC50 (MAGL [3]; [6]): < 100 nM

CN(C(=O)c1cn2c(n1)CN(C1CCC1)CC2)C1(C)CCN(C(=O)OC(C(F)(F)F)C(F)(F)F)CC1 [Example 23, 1,1,1,3,3,3-Hexafluoropropan-2-yl 4-(7-cyclobutyl-N-methyl-5,6,7,8-tetrahydroimidazo[1,2-a]pyrazine-2-carboxamido)-4-methylpiperidine-1-carboxylate]
inhibition at 1 µM (MAGL [2]): > 75%
inhibition at 1 µM (MAGL [3]; [4]): > 75%
inhibition at 1 µM (MAGL [3]; [5]): > 75%
IC50 (MAGL [3]; [6]): < 100 nM

Cn1cc(CN2CCCC23CCN(C(=O)OC(C(F)(F)F)C(F)(F)F)CC3)cn1 [Example 175, 1,1,1,3,3,3-Hexafluoropropan-2-yl 1-((1-methyl-1H-pyrazol-4-yl)methyl)-1,8-diazaspiro[4.5] decane-8-carboxylate]
inhibition at 1 µM (MAGL [2]): 25 to 75%
inhibition at 1 µM (MAGL [3]; [4]): > 75%
inhibition at 1 µM (MAGL [3]; [5]): > 75%

O=C(OC(C(F)(F)F)C(F)(F)F)N1CCC2(CCCN2C(=O)c2cnn3c2OCCC3)CC1 [Example 149, 1,1,1,3,3,3-Hexafluoropropan-2-yl 1-(6,7-dihydro-5H-pyrazolo[5,1-b] [1,3]oxazine-3-carbonyl)-1.8-diazaspiro[4.5] decane-8-carboxylate]
inhibition at 1 µM (MAGL [2]): > 75%
inhibition at 1 µM (MAGL [3]; [4]): > 75%
inhibition at 1 µM (MAGL [3]; [5]): > 75%
IC50 (MAGL [3]; [6]): < 100 nM

O=C(OC(C(F)(F)F)C(F)(F)F)N1CCC2(CCCN2C(=O)c2cn3ccccc3n2)CC1 [Example 69, 1,1,1,3,3,3-Hexafluoropropan-2-yl 1-(imidazo[1,2-a]pyridine-2-carbonyl)-1,8-diazaspiro[4.5] decane-8-carboxylate]
inhibition at 1 µM (MAGL [2]): > 75%
IC50 (MAGL [2]): < 100 nM
IC50 (MAGL [3]; [6]): < 100 nM
